Measurements from PubChem BioAssay (NCI).
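The compound was tested at five concentrations on cells cultured in 96-well plates, with a 48-hour exposure period. Here, GI50 denotes the concentration required for 50% inhibition of growth. TGI: concentration producing complete growth inhibition.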

How the values were obtained:
Assay in all cases: NCI-60 cell line screen, 48 h
NCI-H522 lung = system: NCI-H522 lung
IGROV1 ovarian = system: IGROV1 ovarian
A549 NSCLC = system: A549 NSCLC
HT29 colon = system: HT29 colon
UACC-257 melanoma = system: UACC-257 melanoma
EKVX NSCLC = system: EKVX NSCLC
SF-268 CNS = system: SF-268 CNS
OVCAR-5 ovarian = system: OVCAR-5 ovarian
RXF 393 renal = system: RXF 393 renal
SK-OV-3 ovarian = system: SK-OV-3 ovarian

| Structure (SMILES) | TGI (NCI-H522 lung) [µM] | TGI (IGROV1 ovarian) [µM] | TGI (A549 NSCLC) [µM] | TGI (HT29 colon) [µM] | TGI (UACC-257 melanoma) [µM] | TGI (EKVX NSCLC) [µM] | TGI (SF-268 CNS) [µM] | TGI (OVCAR-5 ovarian) [µM] | TGI (RXF 393 renal) [µM] | TGI (SK-OV-3 ovarian) [µM] | GI50 (NCI-H522 lung) [µM] | GI50 (IGROV1 ovarian) [µM] | GI50 (SK-OV-3 ovarian) [µM] | GI50 (A549 NSCLC) [µM] | GI50 (HT29 colon) [µM] | GI50 (UACC-257 melanoma) [µM] | GI50 (SF-268 CNS) [µM] | GI50 (OVCAR-5 ovarian) [µM] | GI50 (RXF 393 renal) [µM] | GI50 (EKVX NSCLC) [µM] |
| --- | --- | --- | --- | --- | --- | --- | --- | --- | --- | --- | --- | --- | --- | --- | --- | --- | --- | --- | --- | --- |
| COc1ccc2nccc(C3OC(=O)N4CCC(=O)CC34)c2c1 (stereo unspecified) | 28.7 | > 100 | > 100 | > 100 | > 100 | > 100 | > 100 | > 100 | > 100 |  |  |  |  |  |  |  |  |  |  |  |
| O=[N+]([O-])c1ccc(-c2ccc(C3=Nn4c(nnc4-c4ccc(Cl)cc4)SC3)o2)cc1 | > 100 | > 100 | > 100 | > 100 | > 100 | > 100 | > 100 | > 100 |  | > 100 |  |  |  |  |  |  |  |  |  |  |
| Oc1ccc(-c2nc(-c3ccc4oc5ccc(-c6[nH]c(-c7ccc(O)cc7)nc6-c6ccccc6)cc5c4c3)c(-c3ccccc3)[nH]2)cc1 | 8.02 | 96.6 | 25.5 | 11.3 | 33.6 |  | 65.3 | 25.4 | 5.45 | 42.4 | 2.95 | 4.54 | 17 | 4.26 | 3.8 | 10.3 | 5.57 | 12.1 | 2.12 |  |
| Cn1c([N+](=O)[O-])cnc1/C=C1\Oc2ccc(Cl)cc2C1=O | 2.19 | 8.29 | 5.88 | 0.757 | 5.2 |  | 1.45 | 6.53 |  | 7.24 | 0.528 | 1.22 | 2.05 | 1.95 | 0.254 | 1.95 | 0.339 | 2.16 |  |  |
| COc1ccc(/C=C2\CN(Cc3cn(CCCNc4ccnc5cc(Cl)ccc45)nn3)C/C(=C\c3ccc(OC)cc3)C2=O)cc1 | 21.9 | 17.6 | 19.5 | 6.38 | 23.3 |  | 16.9 | 44.2 | 18.9 | 30.6 | 10.3 | 4.86 | 14.1 | 5.07 | 1.82 | 8.28 | 3.45 | 21 | 5.48 |  |
| Oc1c(Br)cc(Br)c2cccnc12 |  | 51.4 | 54.6 | 26.1 | 6 | 19.1 | > 100 | 49.5 | 23.3 | 21.1 |  | 4.18 | 3.99 | 3.62 | 6.55 | 2.22 | 3.36 | 6.21 | 4.13 | 3.45 |
| O=C(/C=C\c1ccc(Cl)c(Cl)c1)c1ccccc1 | 22.2 | 21 | 26.2 | 5.37 | 24.9 |  | 24.7 | 31.3 | 26.6 | 29.8 | 10.2 | 6.82 | 14.1 | 11.5 | 2.27 | 12.2 | 11.1 | 15.3 | 12.3 |  |
